# Measured values from US20190328753A1, “COMPOSITIONS AND METHODS FOR TREATING OCULAR DISEASES” (priority 2015, published 2019).
# “And” between values parts separate entries of the source, which are not always exact repeats. Equal entries are not always repeated.
# Test system: patients with moderate to severe MGD
# Experiment: Clinical trial (Example 8): topical Spironolactone (3 mg/ml) in MGD, retrospective pre-post
# Conditions: for improvement in self-reported global assessment scores / mean improvement in obstruction score / mean improvement in turbidity score / mean improvement in vascularity score / mean improvement in zone A score: positive = score decrease; for Anterior Blepharitis, mean change / Obstruction, mean change / Turbidity, mean change / Vascularity, mean change / Zone A, mean change / Anterior Blepharitis, Mean / Obstruction, Mean / Turbidity, Mean / Vascularity, Mean / Zone A, Mean: scale 0-4; for Subjective Global Assessment, mean change / Global Evaluation, Mean: scale 0-10
# [1] = baseline vs follow up 1, low Schirmer's, n=27
# [2] = baseline vs follow up 1, low Schirmer's, n=27, scale 0-3
# [3] = baseline vs follow up 1, normal Schirmer's, n=75
# [4] = final follow-up, patients with >1 follow-ups, low Schirmer's, n=10
# [5] = final follow-up, patients with >1 follow-ups, low Schirmer's, n=10, scale 0-3
# [6] = final follow-up, patients with >1 follow-ups, normal Schirmer's, n=28
# [7] = final follow-up, patients with >1 follow-ups, normal Schirmer's, n=28, scale 0-3
# [8] = follow-up 1, low Schirmer's, n=27 (FIG. 10)
# [9] = follow-up 1, normal Schirmer's, n=75 (FIG. 9)
# [10] = follow-up 1, patients with >1 follow-ups, low Schirmer's, n=10
# [11] = follow-up 1, patients with >1 follow-ups, low Schirmer's, n=10, scale 0-3
structure (smiles),measurement,setting,value
"CC(=O)SC1CC2=CC(=O)CCC2(C)C2CCC3(C)C(CCC34CCC(=O)O4)C12 (stereo not drawn) [spironolactone, 7α-acetylthio-3-oxo-17α-pregn-4-ene-21,17-carbolactone]","Schirmer's OD, mean change",[1],2.61±7.03 mm and 2.611 mm
same,"Schirmer's OS, mean change",[1],2.33±4.74 mm and 2.327 mm
same,"Vision OS, mean change",[1],−0.0198±0.078 log Mar units and −0.0198 log Mar units
same,improvement in self-reported global assessment scores,[1],0.98±2.18
same,mean improvement in obstruction score,[1],0.39±1.48
same,mean improvement in turbidity score,[1],0.69±0.76
same,mean improvement in vascularity score,[1],0.33±0.55
same,mean improvement in zone A score,[1],0.63±1.21
same,"Keratitis OS Corneal, mean change",[2],0±0.4 and 0
same,"Keratitis OS Nasal, mean change",[2],0.15±0.70 and 0.1538
same,"Keratitis OS Temporal, mean change",[2],0.038±0.56 and 0.03846
same,"Anterior Blepharitis, mean change",[1],0.0±0.64 and 0
same,"Obstruction, mean change",[1],−0.3889
same,"Turbidity, mean change",[1],−0.6852
same,"Vascularity, mean change",[1],−0.3333
same,"Zone A, mean change",[1],−0.6296
same,"Subjective Global Assessment, mean change",[1],−0.9815
same,"Schirmer's OD, mean change",[3],0.11±8.07 mm and 0.1096 mm
same,"Schirmer's OS, mean change",[3],0.92±9.43 mm and 0.9178 mm
same,improvement in self-reported global assessment scores,[3],1.29±1.80
same,mean improvement in obstruction score,[3],0.36±0.90
same,mean improvement in turbidity score,[3],0.93±0.73
same,mean improvement in vascularity score,[3],0.31±0.713
same,mean improvement in zone A score,[3],0.53±0.83
same,"Keratitis OS Corneal, mean change","baseline vs follow up 1, normal Schirmer's, n=75, scale 0-3",0±0.32 and 0
same,"Anterior Blepharitis, mean change",[3],0.04±0.70 and 0.04
same,"Obstruction, mean change",[3],−0.3633
same,"Turbidity, mean change",[3],−0.9267
same,"Vascularity, mean change",[3],−0.31
same,"Zone A, mean change",[3],−0.5533
same,"Subjective Global Assessment, mean change",[3],−1.287
same,"Schirmer's OD, Mean",[4],11.7±10.94 and 11.7
same,"Schirmer's OS, Mean",[4],8.78±9.98 and 8.778
same,"Vision OD, Mean",[4],0.13±0.15 log Mar units and 0.1264 log Mar units
same,"Vision OS, Mean",[4],0.11±0.11 log Mar units and 0.1059 log Mar units
same,"Keratitis OD Corneal, Mean",[5],0.0±0.0 and 0
same,"Keratitis OD Nasal, Mean",[5],0.75±0.63 and 0.75
same,"Keratitis OD Temporal, Mean",[5],0.7±0.71 and 0.7
same,"Keratitis OS Corneal, Mean",[5],0.33±0.5 and 0.3333
same,"Keratitis OS Nasal, Mean",[5],1.06±0.92 and 1.056
same,"Keratitis OS Temporal, Mean",[5],0.83±0.79 and 0.8333
same,"Anterior Blepharitis, Mean",[4],0.2±0.42 and 0.2
same,"Obstruction, Mean",[4],0.75±0.42 and 0.75
same,"Turbidity, Mean",[4],2.1±0.74 and 2.1
same,"Vascularity, Mean",[4],1.4±0.77 and 1.4
same,"Zone A, Mean",[4],2.8±0.79 and 2.8
same,"Global Evaluation, Mean",[4],4.4±2.62 and 4.4
same,"Schirmer's OD, Mean",[6],18.52±9.83 and 18.52
same,"Schirmer's OS, Mean",[6],17.04±8.48 and 17.04
same,"Vision OD, Mean",[6],0.05±0.18 log Mar units and 0.04593 log Mar units
same,"Vision OS, Mean",[6],0.05±0.12 log Mar units and 0.04933 log Mar units
same,"Keratitis OD Corneal, Mean",[7],0.0±0.0 and 0
same,"Keratitis OD Nasal, Mean",[7],0.63±0.63 and 0.625
same,"Keratitis OD Temporal, Mean",[7],0.55±0.60 and 0.5536
same,"Keratitis OS Corneal, Mean",[7],0.16±0.49 and 0.1607
same,"Keratitis OS Nasal, Mean",[7],0.75±0.57 and 0.75
same,"Keratitis OS Temporal, Mean",[7],0.70±0.57 and 0.6964
same,"Anterior Blepharitis, Mean",[6],0.32±0.78 and 0.3214
same,"Obstruction, Mean",[6],1.05±0.71 and 1.054
same,"Turbidity, Mean",[6],1.80±0.83 and 1.804
same,"Vascularity, Mean",[6],1.13±0.91 and 1.125
same,"Zone A, Mean",[6],2.71±0.80 and 2.714
same,"Global Evaluation, Mean",[6],3.55±1.30 and 3.554
same,increase in Schirmer's I scores,"follow-up 1, low Schirmer's, n=27",approximately 40%
same,percent reduction in Global Evaluation score from baseline,[8],22.98%
same,percent reduction in Turbidity score from baseline,[8],30.70%
same,percent reduction in Vascularity score from baseline,[8],30.48%
same,percent reduction in Zone A score from baseline,[8],22.65%
same,percent reduction in Global Evaluation score from baseline,[9],27.52%
same,percent reduction in Obstruction score from baseline,[9],31.23%
same,percent reduction in Turbidity score from baseline,[9],41.82%
same,percent reduction in Vascularity score from baseline,[9],24.51%
same,percent reduction in Zone A score from baseline,[9],19.86%
same,"Schirmer's OD, Mean",[10],8.8±6.7 and 8.8
same,"Schirmer's OS, Mean",[10],7.22±5.19 and 7.222
same,"Vision OD, Mean",[10],0.07±0.10 log Mar units and 0.06633 log Mar units
same,"Vision OS, Mean",[10],0.09±0.14 log Mar units and 0.08737 log Mar units
same,"Keratitis OD Corneal, Mean",[11],0.0±0.0 and 0
same,"Keratitis OD Nasal, Mean",[11],0.60±0.66 and 0.6
same,"Keratitis OD Temporal, Mean",[11],0.65±0.71 and 0.65
same,"Keratitis OS Corneal, Mean",[11],0.22±0.44 and 0.2222
same,"Keratitis OS Nasal, Mean",[11],1.28±0.57 and 1.278
same,"Keratitis OS Temporal, Mean",[11],1.0±0.66 and 1
same,"Anterior Blepharitis, Mean",[10],0.3±0.67 and 0.3
same,"Obstruction, Mean",[10],1.35±1.06 and 1.35
